What all share (assay type): cell-based, human
Assay [1] has as its system c-raf mRNA. The assay is described as follows: c-raf mRNA levels by Northern blot in HMVEC. The procedure: Human dermal microvascular cells (HMVEC-d; Clonetics, San Diego, Calif.) were cultivated in endothelial basal media (EBM, Clonetics) supplemented with 10% fetal bovine serum (HyClone, Logan, Utah). Cells were grown in 100 mm petri dishes until 70-80% confluent, then washed with PBS and OPTI-MEM (Life Technologies, Inc., Gaithersburg, Md.). The cells were then incubated in the presence of OPTI-MEM and […] LIPOFECTIN (a 1:1 (w/w) liposome formulation of the cationic lipid N-[1-(2,3-dioleyloxy)propyl]-n,n,n-trimethylammonium chloride (DOTMA), and dioleoyl phosphotidylethanolamine (DOPE) in membrane filtered water (Life Technologies, Gaithersburg, Md.), per 100 nM of oligonucleotide followed by addition of oligonucleotide at the appropriate concentrations.
For determination of mRNA levels by Northern blot, total RNA was prepared from cells by the guanidinium isothiocyanate procedure or by the Qiagen RNAEASY method (Qiagen, Santa Clarita, Calif.) at the indicated times after initiation of oligonucleotide treatment. Northern blot analysis was performed as described in Current Protocols in Molecular Biology (Ausubel, F. M., et al., (eds), 1987, Greene Publishing Assoc. and Wiley Interscience, New York). A glyceraldehyde 3-phosphate dehydrogenase (G3PDH) probe was purchased from Clontech (Palo Alto, Calif., Catalog Number 9805-1). RNA was quantified and normalized to G3PDH mRNA levels using a Molecular Dynamic PHOSPHORIMAGER (Sunnyvale, Calif.).
(§1) ISIS 12854 (SEQ ID NO. 2) is a 2'-O-methoxyethyl mixed backbone chimeric antisense oligonucleotide designed to hybridize with 3'-untranslated sequences contained within human c-raf mRNA. To determine whether this antisense oligonucleotide is effective as a c-raf inhibitor in endothelial cells, human dermal microvascular cells (HMVEC) were treated with ISIS 12854 (SEQ ID NO. 2) as described in Example 2. C-raf mRNA and protein expression was examined by northern and Western blot analysis. The c-raf cDNA probe was generated from the plasmid, p627 (American Type Culture Collection, Manassas, Va.; catalog #41050), following the supplied instructions. The c-raf antibody was obtained from Transduction Laboratories, Inc. (Lexington, Ky.).

Assay [2] has as its system c-raf protein. The assay is described as follows: c-raf protein levels by Western blot in HMVEC. The procedure: (§2) For determination of protein levels by Western blot, cellular extracts were prepared using […] of RIPA extraction buffer per 100-mm dish. The protein concentration was quantified by Bradford assay using the BioRad kit (BioRad, Hercules, Calif.). Equal amounts of protein were loaded on 10% or 12% SDS-PAGE mini-gel (Novex, San Diego, Calif.). Once transferred to PVDF membranes (Millipore, Bedford, Mass.), the membranes were then treated for a minimum of 2 hours with specific primary antibody followed by incubation with secondary antibody conjugated to HRP. The results were visualized by Enhanced Chemiluminescent (ECL) detection (New England BioLab, Beverly, Mass.). In some experiments, the blots were stripped in stripping buffer (2% SDS, 12.5 mM Tris, pH 6.8) for 30 minutes at 50° C. After extensive washing, the blots were blocked and blotted with different primary antibody.
as §1
On the technique in general: A western blot detects proteins with antibodies after separation by electrophoresis.

Assay [3] has as its system A-raf protein. The assay is described as follows: A-raf protein expression by Western blot in HMVEC. Particulars: same blot stripped and blotted with antibody against A-raf. The procedure: as §2
Reduction of c-raf protein levels also occurred following oligonucleotide treatment. Reduction in protein expression was first detectable 24 hours after treatment and maximal reduction of c-raf protein levels was achieved 48 hours after treatment with 150 nM oligonucleotide. Reduction of c-raf protein levels persisted up to 72 hour following initial treatment.

The test system of assay [4] is ERK. Briefly: TNF-α-stimulated ERK activity, in vitro kinase assay on extracts of treated cells. The note with it: 48 hours recovery, TNF-α 5 or 15 minutes. The procedure: To examine the effect of the c-raf antisense oligonucleotide (ISIS 12854, SEQ ID NO. 2) on ERK, JNK, and p38 MAPK activities stimulated by TNF-α, in vitro kinase assays were performed on extracts derived from cells treated with ISIS 12854 (SEQ ID NO. 2). Cells were treated with oligonucleotides and induced with cytokines. At the indicated time, cells were lysed on ice and debris was removed by centrifugation. Protein concentration was measured by Bradford assay. Lysate containing equal amounts of protein were incubated with primary antibody-agarose conjugates (ERK and p38 assay; Santa Cruz Biotechnology, Santa Cruz, Calif.), or with JNK1-specific or JNK2-specific antibodies (JNK assay; Upstate Biotechnology, Lake Placid, N.Y.), overnight at 4° C.
For isoform-specific JNK assays, anti-rabbit IgG conjugated with agarose beads was added to cell extracts following JNK antibody treatment and wash steps and incubated for 2 hours at 4° C. […]
Cells were treated with the c-raf antisense compound, ISIS 12854 (SEQ ID NO. 2), allowed to recover for 48 hours, at which time TNF-α was added for 5 or 15 minutes prior to cell lysis and initiation of the kinase assays. […] Suitable substrates and ATP were added to the immunoprecipitated kinase complexes and the reaction mixes were analyzed on SDS-PAGE. […]

As a reminder, the IC50 is the concentration that inhibits the measured activity by half.

Regarding “ToCoCoCoGoCsCsTsGsTsGsAsCsAsToGoCoAoToT [ISIS 12854]”, the “% mRNA Expression (c-raf)” value in assay [1] (0.5 nM) was determined as 67%; in assay [1] (2.5 nM), 31%; in assay [1] (10 nM) it was 15%; in assay [1] (50 nM), 10%; in assay [1] (100 nM) it was 13%; in assay [1] (200 nM), 3%. For the same substance, the “% mRNA Inhibition (c-raf)” value in assay [1] (0.5 nM) came to 33%; in assay [1] (2.5 nM) it was 69%; in assay [1] (10 nM), 85%; in assay [1] (50 nM), 90%; in assay [1] (100 nM), 87%; in assay [1] (200 nM), 97%. Also, the IC50 in assay [1] (read-out: IC50 for c-raf mRNA reduction) is around 2.5 nM. Further, in assay [2] (after treatment with 150 nM oligonucleotide), the “time of maximal reduction of c-raf protein levels” value was 48 h. In assay [2] (after treatment, Western blot), the “time at which reduction in c-raf protein expression was first detectable” value amounted to 24 h. Besides, the “persistence of reduction of c-raf protein levels” value in assay [2] (following initial treatment) was “up to 72 hour”. Moreover, the A-raf protein expression entry in assay [3] is reported as “largely unaffected”. For the same substance, in assay [4], the ERK activity entry is “reduced”.
